The conditions of data set [1]: human, in vivo; cited from earlier work.
Data set [2] has as its system blood cells. Nature of the data set: Cytokine batch (batch test II): cytokine release by blood cells in LPS-spiked plasma. The class given is cell-based. The conditions noted are these: PMB 250, 500, 1000 ng/ml; plasma spiked with LPS (E. coli); 4 hours of incubation. Here is the method:
Also to be studied is to what extent this endotoxin elimination has the consequence of inhibiting the release of cytokines (batch test II).
A blood donation was taken in 9 blood-donation tubes (9 ml each) and spiked with 5 IU heparin. The plasma was centrifuges, and the cell pellet as incubated on the rolling mixer. The plasma was spiked with LPS and used for batch test I: […]

For colistin, in data set [1], the serum half-life is 6 to 7.4 h.

Take polymyxin B [PMB]: in data set [2], the “inhibition of cytokine release (TNF-alpha, IL-1beta, IL-6, IL-8) by the blood cells” value was “strong inhibition” and the “inhibition of the key mediator TNF-alpha” value is reported as “especially pronounced”.
